In this assay the target is recombinant α-synuclein fibrils (Homo sapiens, UniProt P37840). The assay can be described thus: Thioflavin T competitive binding fluorescence assay.
Where [1] appears, read: mean ± SD, at least three experiments, NB = no binding was measurable (concentrations up to 10 μM).
Setting [2] is: read-out: Thioflavin T assay Ki, mean ± SD, at least three experiments, NB = no binding was measurable (concentrations up to 10 μM).
The mark [3] stands for this setting: Thioflavin T assay Ki, mean ± SD, at least three experiments, NB = no binding was measurable (concentrations up to 10 μM).

Like-named read-outs stand apart in the source and are kept apart here. A value given as a limit tells only on which side of the number the result lay.

`COc1cccc2nc(/C=C/c3ccccc3)ccc12` [Compound 1, (E)-5-Methoxy-2-styrylquinoline]: under setting [1], the “Thioflavin T assay Ki” value is recorded as “no binding”. The Ki under setting [2] is above 10 µM. With `COc1ccc2nc(/C=C/c3ccccc3)ccc2c1` [Compound 2, (E)-6-Methoxy-2-styrylquinoline], under setting [3], the Ki amounted to 0.192 ± 0.001 µM. Still for that read-out and setting: the value for `COc1ccc2ccc(/C=C/c3ccccc3)nc2c1` [Compound 3, (E)-7-methoxy-2-styrylquinoline] was 0.68 ± 0.139 µM. In the case of `COc1cccc2ccc(/C=C/c3ccccc3)nc12` [Compound 4, (E)-8-Methoxy-2-styrylquinoline], the “Thioflavin T assay Ki” value under setting [1] is “no binding”. In addition, the Ki under setting [2] is above 10 µM. With `COc1cc2ccccc2nc1/C=C/c1ccncc1` [Compound 5, (E)-3-Methoxy-2-(2-(pyridin-4-yl)vinyl)quinolone], the Ki under setting [2] was above 10 µM. On the same count and under the same terms, under `COc1cc(/C=C/c2ccncc2)nc2ccccc12` [Compound 6, (E)-4-Methoxy-2-(2-(pyridin-4-yl)vinyl)quinolone] stands above 10 µM; under `COc1cccc2nc(/C=C/c3ccncc3)ccc12` [Compound 7, (E)-5-Methoxy-2-(2-(pyridin-4-yl)vinyl)quinolone], 0.056 ± 0.04 µM. On the same count and under the same terms, the value for `COc1ccc2nc(/C=C/c3ccncc3)ccc2c1` [Compound 8, (E)-6-Methoxy-2-(2-(pyridin-4-yl)vinyl)quinolone] was 0.052 ± 0.038 µM. Same read-out and setting: under `COc1ccc2ccc(/C=C/c3ccncc3)nc2c1` [Compound 9, (E)-7-Methoxy-2-(2-(pyridin-4-yl)vinyl)quinolone] stands above 10 µM; under `COc1cccc2ccc(/C=C/c3ccncc3)nc12` [Compound 10, (E)-8-Methoxy-2-(2-(pyridin-4-yl)vinyl)quinolone], above 10 µM. With `COc1ccc2nc(/C=C/c3ccnc(F)c3)ccc2c1` [Compound 11, (E)-2-(2-(2-Fluoropyridin-4-yl)vinyl)-6-methoxyquinoline], the “Thioflavin T assay Ki” value under setting [1] is on record as “no binding”. Further, under setting [2], the Ki is above 10 µM. For `COc1ccc2nc(/C=C/c3ccnc(OC)c3)ccc2c1` [Compound 13, (E)-6-Methoxy-2-(2-(2-methoxypyridin-4-yl)vinyl)quinolone], the Ki under setting [2] is 0.052 ± 0.021 µM. The same measure, in the same setting: under `COc1cc(/C=C/c2ccc3cc(OCCF)ccc3n2)ccn1` [Compound 14, (E)-6-(2-Fluoroethoxy)-2-(2-(2-methoxypyridin-4-yl)vinyl)quinolone] stands 0.018 ± 0.001 µM. With `COc1ccc2nc(/C=C/c3ccncc3Cl)ccc2c1` [Compound 15, (E)-2-(2-(3-Chloropyridin-4-yl)vinyl)-6-methoxyquinoline], the “Thioflavin T assay Ki” value under setting [1] was “no binding”. In addition, the Ki under setting [2] is above 10 µM. With `COc1ccc2nc(/C=C/c3ccncc3Br)ccc2c1` [Compound 16, (E)-2-(2-(3-Bromopyridin-4-yl)vinyl)-6-methoxyquinoline], the “Thioflavin T assay Ki” value under setting [1] is “moderate binding”.

In the case of `COc1ccc2nc(-c3noc(-c4cccnc4)n3)ccc2c1` [Compound 26, 3-(6-Methoxyquinolin-2-yl)-5-(pyridin-3-yl)-1,2,4-oxadiazole], the Ki under setting [2] is above 10 µM. Take `COc1cc(-c2nc(-c3ccc4cc(OCCF)ccc4n3)no2)ccn1` [Compound 28, 3-(6-(2-Fluoroethoxy)quinolin-2-yl)-5-(2-methoxypyridin-4-yl)-1,2,4-oxadiazole]: the Ki under setting [3] was determined as 0.015 ± 0.003 µM. Take `COCOc1ccc2nc(-c3noc(-c4ccnc(OC)c4)n3)ccc2c1` [Compound 29, 3-(6-(Methoxymethoxy)quinolin-2-yl)-5-(2-methoxypyridin-4-yl)-1,2,4-oxadiazole]: under setting [2], the Ki is above 10 µM.

Turning to `COc1cc(-c2nc(-c3ccc4cc(OC(C)C)ccc4n3)no2)ccn1` [Compound 30, 3-(6-Isopropoxyquinolin-2-yl)-5-(2-methoxypyridin-4-yl)-1,2,4-oxadiazole], under setting [2], the Ki is above 10 µM. On the same count and under the same terms, the value for `COc1ccc2nc(-c3noc(-c4ccn5ccnc5c4)n3)ccc2c1` [Compound 31, 5-(Imidazo[1,2-a]pyridin-7-yl)-3-(6-methoxyquinolin-2-yl)-1,2,4-oxadiazole] was above 10 µM; that for `CC(C)Oc1ccc2nc(-c3noc(-c4ccn5ccnc5c4)n3)ccc2c1` [Compound 32, 5-(Imidazo[1,2-a]pyridin-7-yl)-3-(6-isopropoxyquinolin-2-yl)-1,2,4-oxadiazole] was above 10 µM; that for `FCCOc1ccc2nc(-c3noc(-c4ccn5ccnc5c4)n3)ccc2c1` [Compound 33, 3-(6-(2-Fluoroethoxy)quinolin-2-yl)-5-(imidazo[1,2-a]pyridin-7-yl)-1,2,4-oxadiazole] was above 10 µM.

Consider `COCOc1ccc2nc(-c3noc(-c4ccn5ccnc5c4)n3)ccc2c1` [Compound 34, 5-(Imidazo[1,2-a]pyridin-7-yl)-3-(6-(methoxymethoxy)-quinolin-2-yl)-1,2,4-oxadiazole], for which, under setting [2], the Ki is above 10 µM.

The record behind these values is article PMC5870887 (Bioorganic & medicinal chemistry letters, 2018).
